{"source": "patent US10526325B2", "about": "“Bicyclic heterocyclic derivatives” (Merck Patent GmbH, priority 2015, dated 2020)", "key": {"PDHK2": {"biological_target": "PDHK2 (Homo sapiens (Human), UniProt Q15119)", "test": "Biochemical activity testing of PDHK2: PDC inactivation assay", "details": "human rec PDHK2, porcine heart PDC, 5 μM ATP, read-out: IC50 PDHK2 (enzyme assay)", "outline": "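Recombinant human PDHK2 (137 nM final) and porcine heart PDC (20 mU/ml) preincubated with compound 30 min at RT in pH 7.0 phosphate kinase buffer, then 5 μM ATP 30 min at 37° C. PDC activity read as NADH fluorescence increase (Ex 340/Em 450 nm) over 45 min with pyruvate, NAD and CoA; 3 mM DCA defined zero; IC50 determined.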"}, "human PDHK2 (12-407)": {"biological_target": "human PDHK2 (12-407) (Homo sapiens (Human), UniProt Q15119)", "test": "Isothermal titration calorimetry (ITC) binding", "details": "ITC at 30° C., pH 7.5", "outline": "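Tag-free human PDHK2 (12-407) from E. coli, 50 μM, titrated into 5 μM compound at 30° C in 20 mM HEPES, 135 mM KCl, 1 mM TCEP, 2 mM MgCl2, 15 mM NaH2PO4, pH 7.5, ≤1% DMSO. One-site fit gave KA, ΔH^obs and N after dilution-heat correction. Protein and compound concentrations were normalised to 1:1 stoichiometry against a standard inhibitor.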"}, "[1]": {"tested_on": "PDH-E1alpha (pSer300) in HEK293T cells", "test": "Cellular immunofluorescence assay, PDH-E1alpha (pSer300) in HEK293T cells", "type": "cell-based, human", "details": "Homo sapiens, HEK-293T, 5 hours incubation, anti-PDH-E1alpha (pSer300) immunofluorescence, read-out: IC50 (cell data)", "outline": "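Human HEK293T cells exposed to compound for 5 h, then fixed, permeabilised and immunostained for phospho-Ser300 PDH-E1α with Alexa 488 secondary and Hoechst counterstain. Fluorescence read by laser scanning cytometry. Data normalized to a pharmacological inhibitor control for dose-response curves.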"}}, "data": [{"smiles": "C[C@@H]1CN(C(=O)[C@@](C)(O)C(F)(F)F)Cc2cnc(-c3ncc(F)cc3F)n21", "note": "[Compound A57, (R)-1-[(R)-3-(3,5-Difluoro-pyridin-2-yl)-5-methyl-5,6-dihydro-8H-imidazo[1,5-a]pyrazin-7-yl]-3,3,3-trifluoro-2-hydroxy-2-methyl-propan-1-one]", "values": [{"measurement": "IC50", "setting": "PDHK2", "value": "300 to 3000", "unit": "nM"}, {"measurement": "Kd", "setting": "human PDHK2 (12-407)", "value": "< 300", "unit": "nM"}, {"measurement": "IC50", "setting": "[1]", "value": "< 300", "unit": "nM"}]}]}
